Experimental data reported in ChEMBL document CHEMBL4304795, “Bis-benzoxaboroles: Design, Synthesis, and Biological Evaluation as Carbonic Anhydrase Inhibitors” (ACS Med Chem Lett, 2019).

Tests used:
Carbonic anhydrase 1 = Carbonic anhydrase 1 (Homo sapiens, UniProt P00915); assay: Inhibition of human carbonic anhydrase 1 assessed as reduction in CO2 hydration preincubated for 15 mins to 2 hrs by phenol red dye based stopped flow CO2 hydrase assay
Carbonic anhydrase 2 = Carbonic anhydrase 2 (Homo sapiens, UniProt P00918); assay: Inhibition of human carbonic anhydrase 2 assessed as reduction in CO2 hydration preincubated for 15 mins to 2 hrs by phenol red dye based stopped flow CO2 hydrase assay
Carbonic anhydrase 9 = Carbonic anhydrase 9 (Homo sapiens, UniProt Q16790); assay: Inhibition of human carbonic anhydrase 9 assessed as reduction in CO2 hydration preincubated for 15 mins to 2 hrs by phenol red dye based stopped flow CO2 hydrase assay
Carbonic anhydrase 4 = Carbonic anhydrase 4 (Homo sapiens, UniProt P22748); assay: Inhibition of human carbonic anhydrase 4 assessed as reduction in CO2 hydration preincubated for 15 mins to 2 hrs by phenol red dye based stopped flow CO2 hydrase assay
Carbonic anhydrase 4, sequence (P22748 whole entry): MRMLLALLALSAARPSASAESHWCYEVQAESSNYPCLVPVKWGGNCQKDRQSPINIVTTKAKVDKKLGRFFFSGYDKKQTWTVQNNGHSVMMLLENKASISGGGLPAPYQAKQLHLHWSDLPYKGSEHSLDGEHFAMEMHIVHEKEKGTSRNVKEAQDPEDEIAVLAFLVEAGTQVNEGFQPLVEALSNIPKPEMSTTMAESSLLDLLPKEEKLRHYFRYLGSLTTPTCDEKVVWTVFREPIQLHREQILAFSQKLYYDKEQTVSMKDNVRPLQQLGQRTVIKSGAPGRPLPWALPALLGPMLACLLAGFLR

Carbonic anhydrase 1, sequence (P00915 whole entry): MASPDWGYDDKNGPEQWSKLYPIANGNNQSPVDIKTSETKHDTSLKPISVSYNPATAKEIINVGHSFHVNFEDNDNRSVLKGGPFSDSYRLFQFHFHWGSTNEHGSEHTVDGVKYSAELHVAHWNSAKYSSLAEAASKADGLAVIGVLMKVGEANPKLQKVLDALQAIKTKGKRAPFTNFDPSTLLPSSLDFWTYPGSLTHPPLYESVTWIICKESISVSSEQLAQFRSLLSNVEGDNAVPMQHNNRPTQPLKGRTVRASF

| SMILES | Ki (Carbonic anhydrase 1) [nM] | Ki (Carbonic anhydrase 2) [nM] | Ki (Carbonic anhydrase 9) [nM] | Ki (Carbonic anhydrase 4) [nM] |
| --- | --- | --- | --- | --- |
| O=C(CCC(=O)Nc1ccc2c(c1)B(O)OC2)Nc1ccc2c(c1)B(O)OC2 | 2890 | 342 | 680 | – |
| CC(C)(C)OC(=O)N[C@@H](CC(=O)Nc1ccc2c(c1)B(O)OC2)C(=O)Nc1ccc2c(c1)B(O)OC2 | 813 | 908 | 280 | – |
| O=C(/C=C/C=C/C(=O)Nc1ccc2c(c1)B(O)OC2)Nc1ccc2c(c1)B(O)OC2 | 3300 | 3930 | 4870 | – |
| O=C(CCCCC(=O)Nc1ccc2c(c1)B(O)OC2)Nc1ccc2c(c1)B(O)OC2 | 1670 | 541 | 312 | – |
| O=C(C/C=C/CC(=O)Nc1ccc2c(c1)B(O)OC2)Nc1ccc2c(c1)B(O)OC2 | 2450 | 2580 | 1120 | – |
| O=c1c(Nc2ccc3c(c2)B(O)OC3)c(Nc2ccc3c(c2)B(O)OC3)c1=O | 3080 | 2280 | – | – |
| O=C(O)c1ccc2c(c1)B(O)OC2 | 850 | 173 | 400 | – |
| O=C(/C=C/C(=O)Nc1ccc2c(c1)B(O)OC2)Nc1ccc2c(c1)B(O)OC2 | 3210 | 1710 | 1480 | – |
| O=C(CC(=O)Nc1ccc2c(c1)B(O)OC2)Nc1ccc2c(c1)B(O)OC2 | 886 | 339 | 158 | – |
| OB1OCc2ccc(/N=C/c3ccc(/C=N/c4ccc5c(c4)B(O)OC5)s3)cc21 | 4130 | 2340 | 203 | – |
| O=C(CC[C@H](NC(=O)OCc1ccccc1)C(=O)Nc1ccc2c(c1)B(O)OC2)Nc1ccc2c(c1)B(O)OC2 | 1780 | 289 | 64.3 | – |
| O=C(Nc1ccc2c(c1)B(O)OC2)c1cc(C(=O)Nc2ccc3c(c2)B(O)OC3)cc(C(=O)Nc2ccc3c(c2)B(O)OC3)c1 | 21900 | 39300 | 8630 | > 100000 |
